Test results reported in US6605628B1, “Method of using 5-(arysulfonyl)-, 5-(arylsulfanyl)-and 5-(arylsulfanyl)thiazolidine-2,4-diones for inhibition of farnesyl-protein transferase” (Wyeth Holdings Corporation, priority 2001, dated 2003).

What was measured:
FPTase [1] = target: T1, FPTase (Homo sapiens, UniProt P49354+P49356); assay: in vitro FTase Inhibition Assay, H-Ras used as substrate for farnesylation; assay type: biochemical; conditions: Table I, read-out: IC50 H-Ras*
FPTase [2] = target: T1, FPTase; assay: in vitro FTase Inhibition Assay, K-Ras used as substrate for farnesylation; assay type: biochemical; conditions: Table I

| Compound | melting point | IC50 (FPTase [1]) | IC50 (FPTase [2]) |
| --- | --- | --- | --- |
| O=C1NC(=O)C(CCCC#Cc2ccc(Cl)cc2)(S(=O)(=O)c2ccc(OCc3ccccc3)cc2)S1 (stereo not drawn) [Example 111, 5-(4-Benzyloxybenzenesulfonyl)-5-[5-(4-chlorophenyl)pent-4-ynyl]-thiazolidine-2,4-dione] | 181 to 184 °C | 110 to 150 nM | 300 to 550 nM |
| CCCCOc1ccc(S(=O)(=O)C2(CCCC#Cc3ccc(Cl)cc3)SC(=O)NC2=O)cc1 (stereo not drawn) [Example 112, 5-(4-Butoxybenzenesulfonyl)-5-[5-(4-chlorophenyl)-pent-4-ynyl]-thiazolidine-2,4-dione] | 116 to 118 °C | 590 to 600 nM | 1400 to 1500 nM |
| O=C1NC(=O)C(CCCC#Cc2ccc(Cl)cc2)(S(=O)(=O)c2cccc3ccccc23)S1 (stereo not drawn) [Example 113, 5-[5-(4-Chlorophenyl)pent-4-ynyl]-5-(naphthalene-1-sulfonyl)-thiazolidine-2,4-dione] | 172 to 174 °C | 50 to 60 nM | 750 to 800 nM |
| O=C1NC(=O)C(CCCC#Cc2cc(Cl)ccc2Cl)(S(=O)(=O)c2ccc(Oc3ccncc3)cc2)S1 (stereo not drawn) [Example 116, 5-[5-(2,5-Dichlorophenyl)pent-4-ynyl]-5-[4-(pyridin-4-yloxy)benzenesulfonyl]thiazolidine-2,4-dione] | 179 to 180 °C (dec.) | 5 to 10 nM | 17 to 40 nM |
| COc1ccc(S(=O)(=O)C2(CCCC#Cc3ccc(Cl)cc3Cl)SC(=O)NC2=O)cc1 (stereo not drawn) [Example 117, 5-[5-(2,4-Dichlorophenyl)pent-4-ynyl]-5-(4-methoxybenzenesulfonyl)-thiazolidine-2,4-dione] | 129 to 133 °C | 20 to 30 nM | 510 to 1000 nM |
| COc1ccc(S(=O)(=O)C2(CCCC#Cc3cccc([N+](=O)[O-])c3)SC(=O)NC2=O)cc1 (stereo not drawn) [Example 118, 5-(4-Methoxybenzenesulfonyl)-5-[5-(3-nitrophenyl)pent-4-ynyl]thiazolidine-2,4-dione] | 126 to 130 °C | 70 nM | 1900 nM |
| O=C1NC(=O)C(CCCC#Cc2cccc([N+](=O)[O-])c2)(S(=O)(=O)c2ccc(Oc3ccccc3)cc2)S1 (stereo not drawn) [Example 119, 5-[5-(3-Nitrophenyl)pent-4-ynyl]-5-(4-phenoxybenzenesulfonyl)thiazolidine-2,4-dione] | 190 to 191 °C | 130 to 140 nM | 1300 to 1700 nM |
| O=C1NC(=O)C(CCCC#Cc2ccc([N+](=O)[O-])cc2)(S(=O)(=O)c2ccc(I)cc2)S1 (stereo not drawn) [Example 120, 5-(4-Iodobenzenesulfonyl)-5-[5-(4-nitrophenyl)pent-4-ynyl]thiazolidine-2,4-dione] | 205 to 207 °C | 18 to 32 nM | 530 to 1000 nM |
| COc1ccc(S(=O)(=O)C2(CCCC#Cc3ccc([N+](=O)[O-])cc3)SC(=O)NC2=O)cc1 (stereo not drawn) [Example 121, 5-(4-Methoxybenzenesulfonyl)-5-[5-(4-nitrophenyl)pent-4-ynyl]thiazolidine-2,4-dione] | 156 to 158 °C | 120 nM | 1600 nM |
| Cc1ccc([N+](=O)[O-])cc1C#CCCCC1(S(=O)(=O)c2ccc(Oc3ccccc3)cc2)SC(=O)NC1=O (stereo not drawn) [Example 124] | 203 to 204 °C | 52 to 80 nM | 910 to 1300 nM |
| Cc1ccc([N+](=O)[O-])cc1C#CCCCC1(S(=O)(=O)c2cccc3ccccc23)SC(=O)NC1=O (stereo not drawn) [Example 126, 5-[5-(2-Methyl-5-nitrophenyl)-pent-4-ynyl]-5-(naphthalene-1-sulfonyl)-thiazolidine-2,4-dione] | 168 to 172 °C | 90 nM | 1700 nM |
| Cc1ccc([N+](=O)[O-])cc1C#CCCCC1(S(=O)(=O)c2ccc3ccccc3c2)SC(=O)NC1=O (stereo not drawn) [Example 127, 5-[5-(2-Methyl-5-nitrophenyl)pent-4-ynyl]-5-(naphthalene-2-sulfonyl)-thiazolidine-2,4-dione] | 197 to 200 °C | 120 to 140 nM | 1300 to 1500 nM |
| Cc1cc([N+](=O)[O-])ccc1C#CCCCC1(S(=O)(=O)c2ccc(Oc3ccccc3)cc2)SC(=O)NC1=O (stereo not drawn) [Example 129, 5-[5-(2-Methyl-4-nitrophenyl)pent-4-ynyl]-5-(4-phenoxybenzenesulfonyl)-thiazolidine-2,4-dione] | 210 to 212 °C | 100 nM | 600 to 790 nM |
| COc1ccc(S(=O)(=O)C2(CCCC#Cc3ccc(C)cc3C)SC(=O)NC2=O)cc1 (stereo not drawn) [Example 136, 5-[5-(2,4-Dimethylphenyl)pent-4-ynyl]-5-(4-methoxybenzenesulfonyl)-thiazolidine-2,4-dione] | 155 to 156 °C | 43 to 50 nM | 1000 to 1900 nM |
| COc1ccc(S(=O)(=O)C2(CCCC#Cc3cc(Cl)ccc3C)SC(=O)NC2=O)cc1 (stereo not drawn) [Example 138, 5-[5-(5-Chloro-2-methylphenyl)pent-4-ynyl]-5-(4-methoxybenzene-sulfonyl)-thiazolidine-2,4-dione] | 121 to 122 °C | 23 to 32 nM | 300 to 420 nM |
| Cc1ccc(Cl)cc1C#CCCCC1(S(=O)(=O)c2ccc(OC(F)(F)F)cc2)SC(=O)NC1=O (stereo not drawn) [Example 139, 5-[5-(5-Chloro-2-methylphenyl)pent-4-ynyl]-5-(4-trifluoromethoxybenzene-sulfonyl)-thiazolidine-2,4-dione] | 196 °C (dec.) | 140 to 170 nM | 600 to 5000 nM |
| COc1ccc(S(=O)(=O)C2(CCCC#Cc3ccc(C(F)(F)F)cc3)SC(=O)NC2=O)cc1 (stereo not drawn) [Example 153, 5-(4-Methoxybenzenesulfonyl)-5-[5-(4-trifluoromethylphenyl)pent-4-ynyl]thiazolidine-2,4-dione] | 160 to 163 °C | 170 to 200 nM | 1000 to 6100 nM |
| COc1ccc(S(=O)(=O)C2(CCCC#Cc3ccc(OC(F)(F)F)cc3)SC(=O)NC2=O)cc1 (stereo not drawn) [Example 154, 5-(4-Methoxybenzenesulfonyl)-5-[5-(4-trifluoromethoxyphenyl)pent-4-ynyl]thiazolidine-2,4-dione] | 120 to 123 °C | 70 to 150 nM | 1000 to 2500 nM |
| Cc1ccc(S(=O)(=O)C2(CCCC#Cc3ccc(C(C)(C)C)cc3)SC(=O)NC2=O)cc1 (stereo not drawn) [Example 157, 5-[5-(4-tert-Butylphenyl)pent-4-ynyl]-5-(toluene-4-sulfonyl)thiazolidine-2,4-dione] | 134 to 138 °C | 270 nM | 5000 nM |

Other lines, results leading:

| melting point | IC50 (FPTase [1]) | IC50 (FPTase [2]) | Compound |
| --- | --- | --- | --- |
| 188 to 190 °C | 30 nM | 400 nM | Cc1ccc([N+](=O)[O-])cc1C#CCCCC1(S(=O)(=O)c2ccc(I)cc2)SC(=O)NC1=O (stereo not drawn) [Example 125, 5-(4-Iodobenzenesulfonyl)-5-[5-(2-methyl-5-nitrophenyl)pent-4-ynyl]-thiazolidine-2,4-dione] |
| 129 to 130 °C | 14 to 850 nM | 430 to 680 nM | Cc1ccc(C)c(C#CCCCC2(S(=O)(=O)c3ccc(I)cc3)SC(=O)NC2=O)c1 (stereo not drawn) [Example 134, 5-[5-(2,5-Dimethylphenyl)pent-4-ynyl]-5-(4-iodobenzenesulfonyl)-thiazolidine-2,4-dione] |
| 149 to 150 °C | 20 to 32 nM | 1900 to 2100 nM | COc1ccc(S(=O)(=O)C2(CCCC#Cc3cc(C)ccc3C)SC(=O)NC2=O)cc1 (stereo not drawn) [Example 135, 5-[5-(2,5-Dimethylphenyl)pent-4-ynyl]-5-(4-methoxybenzenesulfonyl)-thiazol idine-2 ,4-dione] |
| 153 to 154 °C | 21 to 400 nM | 37 to 800 nM | Cc1ccc(C#CCCCC2(S(=O)(=O)c3ccc(I)cc3)SC(=O)NC2=O)c(C)c1 (stereo not drawn) [Example 137, 5-[5-(2,4-Dimethylphenyl)pent-4-ynyl]-5-(4-iodobenzenesulfonyl)-thiazolidine-2,4-dione] |
| 93 to 99 °C | 21 to 32 nM | 300 to 340 nM | Cc1cc(Cl)ccc1C#CCCCC1(S(=O)(=O)c2ccc(I)cc2)SC(=O)NC1=O (stereo not drawn) [Example 141, 5-(5-(4-Chloro-2-methylphenyl)-pent-4-ynyl]-5-(4-iodobenzene-sulfonyl)-thiazolidine-2,4-dione] |
| 146 to 147 °C | 40 to 41 nM | 320 to 550 nM | Cc1cc(Br)ccc1C#CCCCC1(S(=O)(=O)c2ccc(I)cc2)SC(=O)NC1=O (stereo not drawn) [Example 144, 5-[5-(4-Bromo-2-methylphenyl)pent-4-ynyl]-5-(4-iodobenzenesulfonyl)-thiazolidine-2,4-dione] |
| 172 to 175 °C | 4.5 to 120 nM | 23 to 31 nM | Cc1ccc(NC(=O)OC(C)(C)C)cc1C#CCCCC1(S(=O)(=O)c2ccc(I)cc2)SC(=O)NC1=O (stereo not drawn) [Example 148, (3-{5-[5-(4-Iodobenzenesulfonyl)-2,4-dioxothiazolidin-5-yl]-pent-1-ynyl}-4-methylphenyl)carbamic Acid tert-Butyl Ester] |
| 116 to 118 °C | 7.4 to 32 nM | 16 to 68 nM | COc1ccc(S(=O)(=O)C2(CCCC#Cc3cc(NC(=O)OC(C)(C)C)ccc3C)SC(=O)NC2=O)cc1 (stereo not drawn) [Example 150, (3-{5-[5-(4-Methoxybenzenesulfonyl)-2,4-dioxothiazolidin-5-yl]pent-1-ynyl}-4-methylphenyl)carbamic Acid tert-Butyl Ester] |
| 205 to 208 °C | 11 to 16 nM | 100 to 230 nM | COc1ccc(S(=O)(=O)C2(CCCC#Cc3cc(C(=O)NC(C)(C)C)ccc3C)SC(=O)NC2=O)cc1 (stereo not drawn) [Example 152, N-tert-Butyl-3-{5-[5-(4-methoxybenzenesulfonyl)-2,4-dioxothiazol-idin-5-yl]pent-1-ynyl}-4-methyl-benzamide] |
| 119 to 121 °C | 10 to 320 nM | 420 to 440 nM | COC(=O)c1ccc(C)c(C#CCCCC2(S(=O)(=O)c3ccc(OC)cc3)SC(=O)NC2=O)c1 (stereo not drawn) [Example 155, 3-{5-[5-(4-Methoxybenzenesulfonyl)-2,4-dioxo-thiazolidin-5-yl]-pent-1-ynyl}-4-methylbenzoic Acid Methyl Ester] |
